From patent publication US11559527B2 (priority 2017, dated 2023) come the findings set out here.

The subject of one experiment is Hedgehog signaling. Nature of the experiment: Luciferase reporter assay MCF7-GFP-GLI(luc). The class given is cell-based, Human. The conditions noted are these: 50 μM, 2 and 5 days. The text has this: (§1) Mitochondrial fusion and fission may also have an impact in signaling pathways that regulate stem cell proliferation and survival. […] A range of reporter MCF7-GFP cell lines were generated, including MCF7-GFP-GLI(luc), MCF7-GFP-Rbp/Jk(luc), MCF7-GFP-SMAD(luc) and MCF7-GFP-TCF/LEF(luc), to assess Hedgehog signaling, Notch signaling, TGFβ signaling, and Wnt signaling, respectively. […] The data is shown in the four data plots in FIG. 9.
(§2) LUCIFERASE ASSAY: The Cignal Lenti reporter assay (luc) was used to monitor the activity of several signalling pathways in MCF7-GFP cells as explained previously. Luciferase Assay System (E1501, Promega) was performed according to manufacturer's instructions. 1×10^4 MCF7 […] were seeded in black-walled 96 well plates. When cells were attached, drug treatments were added for 18, 48 hours and 5 days. After treatment, Luciferase Assay was performed according to manufacturer's instructions and light signal was acquired in the Xenogen VivoVision IVIS Lumina. Results were normalized by SRB staining of cells grown in 96-well plates in parallel.
(§3) SULFORHODAMINE B (SRB) ASSAY: SRB (S9012, Sigma) measures total biomass by staining cellular proteins. […] Absorbance was spectrophotometrically measured at 562 nm in a FluoStar Omega plate reader (BMG Labtech). […]

For experiment [1], the system named is MCF7 cells. Put plainly: Bradford assay (protein content as indicator of cell viability). The conditions noted are these: 2 days. The class given is cell-based, Human. As for the experimental part:
The inventors sought to evaluate whether mDIVI-1-induced inhibition of DRP1 has repercussion on the viability of MCF7 cells. […] Similar results were obtained using the Bradford assay, which measures protein content, as an indicator of cell viability.
EXTRACELLULAR FLUX […] AND BRADFORD ASSAY: Extracellular acidification rate (ECAR) and oxygen consumption rate (OCR) were measured in a XF96 Extracellular Flux Analyzer (Seahorse Biosciences). Briefly, 1×10^4 MCF7 cells per well were seeded in XF96 plates and incubated with complete medium. When cells were attached, mDIVI-1 and vehicle treatments were added. Six replicates were run for each condition. After 48 hours, un-buffered DMEM XF medium supplemented with 2 mM glutamine (pH 7.4) was added to the cells, and placed in a 37° C. CO2-free incubator for 1 hour. Ten mM glucose, 1 μM oligomycin and 100 mM 2-deoxyglucose (2-DG) were injected into the media at different time points and ECAR was measured. Likewise, ECAR and OCR were quantified using un-buffered DMEM XF medium supplemented with 2 mM glutamine, 2 mM sodium pyruvate and 10 mM glucose. One μM oligomycin, 0.9 μM FCCP and 1 μM rotenone and antimycin A were injected into the media at different time points and OCR and ECAR were measured. […] All parameters were calculated according to manufacturer.

For a further experiment, the system named is A375 melanoma cells. Nature of the experiment: Tumorsphere formation assay, A375. It counts as cell-based. As for the experimental part: One of the gold standard techniques for the study and identification of CSCs is the sphere formation assay, an in vitro culture system that enriches for CSCs. Under these anchorage-independent culture conditions, CSCs preferentially form the so-called tumorspheres, whereas more differentiated cells die rapidly.
TUMORSPHERE FORMATION ASSAY: A single cell suspension was prepared using enzymatic (1× Trypsin-EDTA, T3924, Sigma Aldrich), and manual disaggregation (25 gauge needle). […] After 5 days of culture in a humidified incubator at 37° C., tumorspheres bigger than 50 μm were counted using an eye piece graticule.

The next experiment deals with Wnt signaling. Put plainly: Luciferase reporter assay MCF7-GFP-TCF/LEF(luc). It counts as cell-based, Human. The conditions noted are these: 50 μM, 2 and 5 days.
Text: as §1, §2, §3
A general note: A reporter such as luciferase makes a cellular process visible.

Experiment [2] relates to MCF7 cells. Put plainly: Extracellular flux analysis (ECAR and OCR, XF96). It counts as cell-based, Human. Here is the method:
Inhibition of mitochondrial fission by m-DIVI-1 or a derivative thereof also blocks the normal functioning of mitochondrial metabolism in CSCs. Indeed, it has been shown that a DRP1 mutant that inhibits mitochondrial fission increases glucose uptake and lactate production, and decreases ATP production. […] The extracellular acidification rate (ECAR) and the oxygen consumption rate (OCR) were measured using an XF96 Extracellular Flux Analyser, and FIGS. 5A, 5B, and 6A-6C show the data. Basal glycolysis, glycolytic capacity and glycolytic reserve were calculated after addition of glucose, oligomycin and 2-deoxyglucose (2DG) into the media. […] Thus, to measure basal respiration, ATP production, maximal respiration and spare respiratory capacity, oxygen consumption was also calculated after addition of oligomycin, FCCP and antimycin/rotenone into glucose-containing media. […] The OCR versus ECAR graph was also plotted to have an indication of the metabolic state of the cell. […] Thus, mDIVI-1-induced inhibition of mitochondrial fission functionally targets oxidative phosphorylation and also the glycolytic function of MCF7 cells, transforming them into cells with lower mitochondrial energetic needs.
EXTRACELLULAR FLUX […] AND BRADFORD ASSAY: Extracellular acidification rate (ECAR) and oxygen consumption rate (OCR) were measured in a XF96 Extracellular Flux Analyzer (Seahorse Biosciences). Briefly, 1×10^4 MCF7 cells per well were seeded in XF96 plates and incubated with complete medium. When cells were attached, mDIVI-1 and vehicle treatments were added. Six replicates were run for each condition. After 48 hours, un-buffered DMEM XF medium supplemented with 2 mM glutamine (pH 7.4) was added to the cells, and placed in a 37° C. CO2-free incubator for 1 hour. Ten mM glucose, 1 μM oligomycin and 100 mM 2-deoxyglucose (2-DG) were injected into the media at different time points and ECAR was measured. Likewise, ECAR and OCR were quantified using un-buffered DMEM XF medium supplemented with 2 mM glutamine, 2 mM sodium pyruvate and 10 mM glucose. One μM oligomycin, 0.9 μM FCCP and 1 μM rotenone and antimycin A were injected into the media at different time points and OCR and ECAR were measured. Cells were finally lysed with 0.1 M NaOH and protein lysate was subsequently stained with Quick Start™ Bradford 1× Dye Reagent (500-0205, BioRad) to normalise results. All parameters were calculated according to manufacturer.

In experiment [3] the test system is MCF7 cells. Put plainly: CD24/CD44 expression by FACS. It counts as cell-based, Human. As for the experimental part: In human breast cancers, CSCs were first identified by the profile of expression of the cell surface marker CD24^−/CD44^+.
This is evident in FIGS. 10A and 10B.
The surviving fraction after 2 days and 5 days of growth was analyzed by FACS. MCF7 cells were either trypsinised or spun down and trypsinised and incubated with CD24 (IOTest CD24-PE, Beckman Coulter) and CD44 (APC mouse anti-human CD44, 559942, BD Pharmingen) for 15 minutes on ice. Cells were then rinsed twice in PBS, spun down, and resuspended with DAPI dye (D1306, Molecular probes) at 3 μM in PBS for 10 minutes. Samples were then analyzed by FACS (Fortessa, BD Bioscence). Only the live cell population, identified using the DAPI staining, was analyzed for CD24/CD44 expression. Data were analyzed using FlowJo software.
On the technique in general: A flow cytometer gives signals particle by particle.

For the compound `COc1cc(-n2c(S)nc3ccccc3c2=O)c(Cl)cc1Cl` [mDIVI-1, 3-(2,4-Dichloro-5-methoxyphenyl)-2-sulfanyl-4(3H)-quinazolinone], in the experiment with Hedgehog signaling, the “Hedgehog/GLI pathway luciferase activity” value was “inhibition”. For the same compound, in the experiment on MCF7 cells [1] (20 μM), the MCF7 protein content result is “significantly reduced”. In addition, the MCF7 protein content result in the experiment with MCF7 cells [1] (50 μM) is reported as “significantly reduced”. The “decrease of tumorsphere forming capacity” value in the experiment on A375 melanoma cells (A375, 10 μM) is “over 35%”. Also, the “decrease of tumorsphere forming capacity” value with A375 melanoma cells (A375, 50 μM) was “over 90%”. Moreover, in the experiment on Wnt signaling, the “Wnt/TCF pathway luciferase activity” value is on record as “inhibition”. Moreover, in the experiment on MCF7 cells [2] (48 hours), the “basal glycolysis (ECAR)” value is recorded as “did not have a significant effect”, the “glycolytic capacity (ECAR)” value is listed as “reduced”, the “glycolytic reserve (ECAR)” value is listed as “reduced” and the “oxygen consumption linked to ATP production” value was “significantly reduced”. The “oxygen consumption linked to basal respiration” value in the experiment with MCF7 cells [2] (48 hours) is “significantly reduced”. Further, the spare respiratory capacity result in the experiment on MCF7 cells [2] (48 hours, all mDIVI-1 concentrations) is “slightly increased”. Moreover, the “oxygen consumption linked to maximal respiration” value with MCF7 cells [2] (48 hours, to a lesser extent, at higher concentrations) was “significantly reduced”. For the same compound, the OCR/ECAR ratio entry with MCF7 cells [2] (compared to vehicle) is recorded as “decreased dose-dependently”. Besides, the “abundance of CD24−/CD44+ subpopulation” value in the experiment on MCF7 cells [3] (MCF7 grown as monolayers, 10 or 50 μM, vs vehicle) is “not reduced”. In addition, the “amount of CD24−/CD44+ cells” value in the experiment with MCF7 cells [3] (MCF7 in suspension, dose-dependent) was “increased”.
